For 28 molecules, TGI and GI50 results are on record in PubChem BioAssay (NCI).

What all share (test): inhibition of tumour cell growth, NCI panel, 48 h
Assay [1] has as its system SN12C renal.
Assay [2] concerns DMS 273 small cell lung.
For assay [3], the system named is NCI-H23 lung.
For assay [4], the system named is K-562 leukemia.
For assay [5], the system named is CCRF-CEM leukemia.
Assay [6] relates to UACC-257 melanoma.
The subject of assay [7] is HOP-62 NSCLC.
Assay [8] concerns KM12 colon.
Assay [9] concerns SW-620 colon.
The subject of assay [10] is HOP-92 NSCLC.

“And” between values parts separate entries of the source, which are not always exact repeats. Equal entries are not always repeated.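 Values below derive from 48-hour exposures of cells grown in 96-well plates, with endpoints linearly interpolated between the two concentrations bracketing the appropriate inhibition level. Here, GI50 denotes the concentration required for 50% inhibition of growth. At the TGI there is no net growth.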

Consider `O=c1c(Cl)c(Cl)cnn1CCc1ccncc1`, for which the TGI in [1] is 33.6 µM; in assay [2], 33.6 µM; in assay [3], 34.1 µM; in assay [4], above 100 µM; in assay [5], 88.8 µM; in assay [6], 34.1 µM. Further, the TGI in [7] stood at 33.9 µM; in assay [8], 28.1 µM; in [9], 41.2 µM; in assay [10], 38.5 µM.
In the case of `CC1(Cc2ccccc2)NC(=S)NC1=O` (stereo not drawn), the TGI in [1], in [2], in [3], in assay [6], in assay [7] and in [8] was above 100 µM each time. Also, the TGI in assay [9] and in assay [10] was above 100 µM throughout.
Consider `C#CCC(N)(CO)C(=O)O` (stereo not drawn), for which the TGI in assay [2], in assay [3], in assay [4], in [6], in [7] and in assay [8] was above 100 µM in each case. Further, the TGI in assay [9] and in assay [10] was above 100 µM each time.
As for `CC(=O)OC1COC(n2c(=S)n(-c3ccccc3)c(=O)c3cc(Br)ccc32)C(OC(C)=O)C1OC(C)=O` (stereo not drawn), the TGI in assay [1], in [2], in [3], in assay [4], in assay [5] and in assay [6] was above 100 µM in each case. In addition, the TGI in assay [7] was 47.5 µM; in [8], above 100 µM; in assay [9] it was above 100 µM; in assay [10] it was 55.5 µM.
In the case of `Cl[Si]1(Cl)Oc2ccccc2O[Si](Cl)(Cl)Oc2ccccc2O1`, the TGI in assay [1] is above 100 µM; in assay [2], 31.3 µM; in assay [3] it was 84.6 µM; in assay [4], 40.9 µM; in assay [5] it was 10.5 µM; in [7], above 100 µM. Further, the TGI in [8] was above 100 µM; in [9] it was 54.5 µM; in [10], 89.6 µM.
For `Cc1ccc(S(=O)(=O)N/N=C(\c2nc3ccc([N+](=O)[O-])cc3[nH]c2=O)C(O)c2ccccc2Cl)cc1` (stereo not drawn), the TGI in assay [1], in assay [2], in assay [3], in assay [4], in assay [5] and in assay [6] was above 100 µM throughout. The TGI in assay [7], in assay [8], in assay [9] and in assay [10] was above 100 µM throughout.
For the molecule `CC(=O)OCC1OC(n2cc([N+](=O)[O-])c(=O)[nH]c2=O)C(OC(C)=O)C(OC(C)=O)C1OC(C)=O` (stereo not drawn), the TGI in assay [1], in assay [2], in assay [3], in assay [4], in [5] and in assay [6] was above 100 µM throughout. For the same molecule, the TGI in [7], in assay [8], in assay [9] and in assay [10] was above 100 µM each time.
Consider `NC(=O)/C=C/C(=O)O`, for which the TGI in assay [1], in [2], in assay [3], in assay [4], in assay [5] and in [6] was above 5000 µM throughout. Moreover, the TGI in assay [7], in assay [8], in assay [9] and in assay [10] was above 5000 µM in each case.
`COc1c(Br)cc(Br)c(OC)c1-c1[nH]c(Br)c(Br)c1Br`: the TGI in assay [1] is 21.6 µM; in assay [2] it was 25.1 µM; in assay [3] it was 13.8 µM; in [4], 15 µM; in assay [5] it was 20.5 µM; in assay [6] it was 19.2 µM. Further, the TGI in assay [7] came to 21.3 µM; in [8], 21.1 µM; in [9], 21.7 µM; in assay [10] it was 7.79 µM.
In the case of `O=C1C=CC(=O)N1Nc1ccc([N+](=O)[O-])cc1[N+](=O)[O-]`, the TGI in [1] was above 100 µM; in [2] it was above 100 µM; in assay [3] it was above 100 µM; in assay [4], above 66.2 µM; in assay [5], above 34.3 µM; in [6] it was above 100 µM. Also, the TGI in assay [7] was above 100 µM; in [8] it was above 100 µM; in assay [9], above 100 µM; in assay [10] it was above 77 µM.
Regarding `Cc1cn(C2OC(C)(CO)C(O)C2O)c(=O)[nH]c1=O` (stereo not drawn), the TGI in assay [1], in assay [2], in assay [3], in [4], in assay [5] and in assay [7] was above 100 µM throughout. The TGI in assay [8], in [9] and in assay [10] was above 100 µM in each case.
As to `O=C1C=C(O)c2[nH]c(=O)ccc2C1=O`, the TGI in [1], in assay [2], in [3], in [4], in [5] and in assay [6] was above 100 µM throughout. The TGI in [7], in assay [9] and in assay [10] was above 100 µM each time.
For `Cc1nnc(N/N=C(/C(=O)C(C#N)c2ccccc2)C(C#N)c2ccccc2)n1N` (stereo not drawn), the TGI in assay [1] stood at 16.6 µM; in assay [2], 34.4 µM; in assay [3], 17.8 µM; in assay [4], 27.9 µM; in [5], 15.9 µM; in [6] it was 13.2 µM. Moreover, the TGI in assay [7] was above 100 µM; in assay [8], above 55.4 µM; in [9] it was 8.19 µM; in assay [10], above 100 µM.
For `Cc1c(C(=O)CSc2nc3ccccc3c(=O)n2-c2ccccc2)c(=O)n(-c2ccccc2)n1C`, the TGI is above 100 µM in [1]; above 100 µM in assay [2]; above 100 µM in assay [3]; above 100 µM in [5]; above 100 µM in [6]; 69.1 µM in assay [7]. For the same molecule, the TGI in assay [8] is above 100 µM; in assay [9], above 100 µM; in assay [10], 95.8 µM.
As for `COc1ccc(Nc2nc3ccccc3nc2-c2cccs2)cc1`, the TGI in assay [1], in [2], in assay [3], in [4], in assay [5] and in assay [6] was above 100 µM each time. The TGI in assay [7], in assay [8], in assay [9] and in assay [10] was above 100 µM in each case.
Regarding `CCN(CC)CC(=O)N1CCc2c([nH]c3ccccc23)C1c1cccnc1` (stereo not drawn), the TGI in assay [1], in assay [2], in assay [3], in [4], in assay [5] and in [6] was above 100 µM each time. Besides, the TGI in assay [7], in assay [8], in [9] and in [10] was above 100 µM each time.
As to `O=c1ncccn1C1C=C(CO)C(O)C1O` (stereo not drawn), the TGI in assay [2], in [3], in [4], in assay [5], in assay [6] and in [7] was above 50 µM throughout. For the same molecule, the TGI in [8], in [9] and in assay [10] was above 50 µM in each case.
For the molecule `CNC(SC)=C1C(=O)OC(C)(C)OC1=O`, the TGI in assay [1], in assay [2], in [3], in assay [4], in assay [5] and in [6] was above 100 µM each time. The TGI in [7] is above 100 µM; in [8] it was above 100 µM; in assay [9], 38.5 µM; in assay [10], above 100 µM.
`CCOC(=O)/C(=C/c1cccc(OC)c1)N(CC)CC`: the TGI in assay [2], in assay [3], in assay [4], in assay [5], in assay [6] and in [7] was above 100 µM in each case. Further, the TGI in assay [8], in [9] and in assay [10] was above 100 µM each time.
Consider `CC1(C)OC2COC3(CNO)OC(C)(C)OC3C2O1` (stereo not drawn), for which the TGI in [1], in assay [2], in assay [3], in [4], in assay [5] and in [6] was above 100 µM in each case. Moreover, the TGI in [7], in assay [8], in [9] and in assay [10] was above 100 µM in each case.
For `CC(=O)NNc1nc(C)c(C(=O)NNC(=O)C(=O)Nc2nc3ccc([N+](=O)[O-])cc3s2)s1`, the TGI in assay [1] is above 100 µM; in assay [2], above 100 µM; in assay [3] it was above 100 µM; in assay [4] it was above 70.6 µM; in assay [5], 56.5 µM; in [6], above 100 µM. The TGI in assay [7], in [8], in [9] and in assay [10] was above 100 µM throughout.
Consider `CC1(C)CC[C@H](C2=CC(=O)c3c(O)ccc(O)c3C2=O)O1`, for which the GI50 in assay [1] is 2.6 µM and 1.51 µM and 0.382 µM; in assay [2] it was 7.31 µM and 1.32 µM and 0.752 µM; in assay [3] it was 2.14 µM and 0.836 µM and 0.639 µM; in [5], 0.666 µM and 0.114 µM; in [6] it was 1.99 µM and 1.38 µM and 0.391 µM; in assay [8] it was 6.25 µM and 1.69 µM and 1.83 µM. In addition, the GI50 in [9] is 0.66 µM and 0.374 µM and 0.0996 µM; in assay [10], 1.75 µM and 1.14 µM and 0.263 µM. For the same molecule, the TGI is 6.41 µM and 2.07 µM and 2.36 µM in [3]; 4.77 µM and 2.67 µM and 1.08 µM in assay [6]; 9.96 µM and 6.57 µM in assay [7]; 14.2 µM and 3.2 µM and 3.45 µM in assay [8]; 1.67 µM and 1.64 µM and 0.229 µM in assay [9]; 3.39 µM and 2.5 µM and 0.725 µM in [10].
As to `O=C/C(=C(/Cl)c1ccc(O)cc1)c1ccccc1`, the TGI in assay [1] was above 61.3 µM; in assay [2] it was 48 µM; in [3] it was 55.1 µM; in assay [4] it was above 100 µM; in [5], above 100 µM; in [6], above 56.6 µM. Also, the TGI in assay [8] was above 100 µM; in [9] it was above 68 µM; in [10], 50.7 µM.
For `COC1OC(C)C(OCc2ccccc2)C(OS(=O)(=O)c2ccc(C)cc2)C1OS(=O)(=O)c1ccc(C)cc1` (stereo not drawn), the TGI in assay [1], in assay [2], in assay [3], in assay [4], in assay [5] and in [6] was above 100 µM each time. In addition, the TGI in assay [7], in [8] and in [9] was above 100 µM throughout.
For `COC(=O)/C(C#N)=C1\CCC(C(=O)OC)N1C` (stereo not drawn), the TGI in assay [1], in assay [2], in [3], in assay [4], in assay [5] and in assay [6] was above 100 µM in each case. In addition, the TGI in assay [7], in assay [8] and in assay [10] was above 100 µM throughout.
Turning to `COc1cccc(/C=C2\CCC(C)(CN(C)C)C2=O)c1` (stereo not drawn), the TGI in [1], in assay [2], in assay [3], in assay [4], in [6] and in [7] was above 100 µM in each case. Also, the TGI in assay [8], in [9] and in [10] was above 100 µM in each case.
`CC(CC(=O)Nc1ccc(NC(=O)CC(C)N=NC(N)=S)cc1)N=NC(N)=S` (stereo not drawn): the TGI in [1], in [2], in assay [3], in assay [4], in assay [5] and in [6] was above 100 µM throughout. Besides, the TGI in assay [7], in [8] and in [10] was above 100 µM throughout.
`O=C(NC12CC3CC(CC(C3)C1)C2)C(=O)c1c[nH]c2ccc(Cl)cc12`: the TGI in assay [1], in assay [2], in [3], in assay [4], in [5] and in [6] was above 100 µM each time. Besides, the TGI is 66.2 µM in assay [7], above 100 µM in assay [8] and 53.2 µM in assay [10].
